According to US6207172A, “Composition for the delivery of a pharmaceutical agent to a patient” (Warner-Lambert Company, priority 1998, dated 2001):
Read-outs that look alike come from different tables or passages of the source.

Columns and labels:
[1] = Mean particle size of the PEG/PVP formulation after filtration; assay type: physicochemical; settings: diameter; PEG 3350/10% PVP pH 7.4 phosphate buffer formulation, filtered through 0.45 μm PTFE filter
Method: After formation of the composition for delivering a pharmaceutical agent to a patient, the composition has been successfully extruded through both 0.45 and […] nylon filters, yielding a particle size of around 500 or 300 nm, respectively. In addition, the compositions can be autoclaved. The compositions have also been freeze dried and can be reconstituted by the addition of water or a buffer.
To the melted phase were then added 3 mL of 10% PVP in pH 7.4 phosphate buffer with stirring. The mixture was stirred during cool-down to room temperature. Before administration, the formulation was filtered through a 0.45 μm PTFE filter. […] The final concentration was calculated to be 10 mg/mL.
Butyl-[2,5-dimethyl-7-(2,4,6-trimethyl-phenyl)-7H-pyrrolo[2,3-d]pyrimidin-4-yl]-ethyl-amine (CRF-1 receptor antagonist) was formulated in the PEG/PVP system as follows. Thirty milligrams of Butyl-[2,5-dimethyl-7-(2,4,6-trimethyl-phenyl)-7H-pyrrolo[2,3-d]pyrimidin- 4-yl]-ethyl-amine were dissolved in 1.5 g of molten (65° C.) PEG 3350. To the melted phase were then added 1.5 mL of 10% PVP in pH 7.4 phosphate buffer with stirring. The mixture was stirred during cool-down to room temperature. Before administration, the formulation was filtered through a 0.45 μm PTFE filter. […] The final concentration was calculated to be 10 mg/mL.

tumor-bearing mice [2] = assay: Deaths of tumor-bearing mice during 10 days oral gavage dosing; assay type: in vivo; settings: 3 mice
Source text: (§1) Single, 200-mg/kg daily oral gavage doses of the PEG/PVP formulation were given to 3 tumor-bearing mice for 10 days.

tumor-bearing mice [3] = assay: Tumor growth inhibition in tumor-bearing mice (change in tumor size from Day 1); assay type: in vivo; settings: PEG/PVP 200 mg/kg daily vs DMA/lactate 400 mg/kg (200 mg/kg twice daily), oral gavage, 10 days
Source text: as §1

[4] = Oral pharmacokinetics in fasted male Wistar rats; assay type: in vivo; settings: for AUC(0-t) at 8 h / Cmax: rat, blood, po, 10 mg/kg, fasted male Wistar rats
Method: Single, 10-mg/kg oral gavage doses of the Butyl-[2,5-dimethyl-7-(2,4,6-trimethyl-phenyl)-7H-pyrrolo[2,3-d]pyrimidin- 4-yl]-ethyl-amine PEG/PVP formulation were given to 3 fasted male Wistar rats. In parallel, single, 10-mg/kg oral gavage doses of Butyl-[2,5-dimethyl-7-(2,4,6-trimethyl-phenyl)-7H-pyrrolo[2,3-d]pyrimidin- 4-yl]-ethyl-amine, as an aqueous suspension in 0.1% Tween 80, were administered to 3 additional fasted male Wistar rats. Blood samples were serially drawn over the 24-hour period following administration and assayed for Butyl-[2,5-dimethyl-7-(2,4,6-trimethyl-phenyl)-7H-pyrrolo[2,3-d]pyrimidin- 4-yl]-ethyl-amine concentrations.

[5] = PEG/PVP emulsion vs 0.1% Tween 80 suspension, 10 mg/kg oral

| SMILES | Mean particle size [1] | mice that died, DMA/lactate system (tumor-bearing mice [2]; DMA/lactate, 400 mg/kg (200 mg/kg oral gavage twice daily)) | mice that died, PEG/PVP preparation (tumor-bearing mice [2]; PEG/PVP, 200 mg/kg daily oral gavage) | Tumor growth inhibition, ratio PEG/PVP emulsion to DMA/lactate preparation (tumor-bearing mice [3]) [fold] | AUC(0-8), difference between the 2 dose groups [4, 5] | Cmax, difference between the 2 dose groups [4, 5] | half-life, difference between the 2 dose groups [4, 5] | AUC(0-t) at 8 h ([4]; PEG/PVP emulsion, 10 mg/kg single oral gavage, read-out: AUC(0-8), PEG/PVP-dosed rats) [ng·h/mL] | Cmax ([4]; PEG/PVP emulsion, 10 mg/kg single oral gavage, read-out: Mean Cmax, PEG/PVP emulsion group) [ng/mL] | AUC(0-t) at 8 h ([4]; aqueous suspension in 0.1% Tween 80, 10 mg/kg single oral gavage, read-out: AUC(0-8), suspension-dosed) [ng·h/mL] | Cmax ([4]; aqueous suspension in 0.1% Tween 80, 10 mg/kg single oral gavage, read-out: Mean Cmax, 0.1% Tween group) [ng/mL] |
| --- | --- | --- | --- | --- | --- | --- | --- | --- | --- | --- | --- |
| CNc1cc2c(Nc3cccc(Br)c3)ncnc2cn1 [N^4-(3-Bromo-phenyl)-N^6-methyl-pyrido[3,4-d]pyrimidine-4,6-diamine] | approximately 400 nm | all 3 mice dosed with the DMA/lactate system died | None of the mice given the PEG/PVP preparation died | 4 |  |  |  |  |  |  |  |
| CCCCN(CC)c1nc(C)nc2c1c(C)cn2-c1c(C)cc(C)cc1C [Butyl-[2,5-dimethyl-7-(2,4,6-trimethyl-phenyl)-7H-pyrrolo[2,3-d]pyrimidin-4-yl]-ethyl-amine] | approximately 420 nm |  |  |  | Neither Cmax, AUC(0-8), nor half-life differed significantly between the 2 dose groups | Neither Cmax, AUC(0-8), nor half-life differed significantly between the 2 dose groups | Neither Cmax, AUC(0-8), nor half-life differed significantly between the 2 dose groups | 283 | 283 | 267 | 267 |
